# Results published in ChEMBL document CHEMBL5614413, “Design, synthesis and biological evaluation of amphiphilic benzopyran derivatives as potent antibacterial agents against multidrug-resistant bacteria” (Eur J Med Chem, 2024).
# The source made the active and inactive calls. The calls are words filed in the database; no cut-off is given here.
# Experiments:
# Pseudomonas aeruginosa = assay: Antibacterial activity against penicillin-susceptible Pseudomonas aeruginosa ATCC 27853; format: functional
# Staphylococcus aureus [1] = assay: (§1) Antibacterial activity against methicillin-resistant Staphylococcus aureus ATCC 43300 infected in sepsis mouse model assessed as reduction in number of surviving bacterial colonies in blood at 5 mg/kg pre-infected with bacteria for 1 hrs followed by continuous compound administration at 12 hrs intervals for 2 days relative to control; format: functional; details: time 2 day
# Staphylococcus aureus [2] = assay: as §1, with “pathological damages” for “number of surviving bacterial colonies”, “kidney” for “blood”, “by H and E staining based analysis” for “relative to control”; format: functional, organism-based; details: time 2.0 day
# Staphylococcus aureus [3] = assay: as §1, with “pathological damages” for “number of surviving bacterial colonies”, “spleen” for “blood”, “by H and E staining based analysis” for “relative to control”; format: functional, organism-based; details: time 2.0 day
# Enterococcus faecalis = assay: Antibacterial activity against vancomycin-susceptible Enterococcus faecalis ATCC 29212; format: functional
# Staphylococcus aureus [4] = assay: (§2) Antibacterial activity against methicillin-resistant Staphylococcus aureus ATCC 43300 infected in sepsis mouse model assessed as decrease in IL-6 level in blood at 5 mg/kg pre-infected with bacteria for 1 hrs followed by continuous compound administration at 12 hrs intervals for 2 days; format: functional, organism-based; details: time 2.0 day
# Acinetobacter baumannii = assay: Antibacterial activity against Acinetobacter baumannii ATCC 19606; format: functional
# Klebsiella pneumoniae = assay: Antibacterial activity against Klebsiella pneumoniae ATCC 10031; format: functional
# Staphylococcus aureus [5] = assay: as §2, with “reduction” for “decrease”, “pathological damages” for “IL-6 level”, “liver” for “blood”, “days by H and E staining based analysis” for “days”; format: functional, organism-based; details: time 2.0 day
# Staphylococcus aureus [6] = assay: Antibacterial activity against methicillin-resistant Staphylococcus aureus ATCC 43300 infected in sepsis mouse model assessed as decrease in TNF-alpha level in blood at 5 mg/kg pre-infected with bacteria for 1 hrs followed by continuous compound administration at 12 hrs intervals for 2 days; format: functional, organism-based; details: time 2.0 day
# Staphylococcus aureus [7] = assay: as §2, with “reduction” for “decrease”, “bacterial load” for “IL-6 level”, “spleen” for “blood”, “days (reference value: 7.45 log10CFU/g)” for “days”; format: functional; details: time 2 day
# Staphylococcus aureus [8] = assay: as §1, with “spleen” for “blood”; format: functional; details: time 2 day
# Escherichia coli = assay: Antibacterial activity against penicillin-susceptible Escherichia coli ATCC 25922; format: functional
# Staphylococcus aureus [9] = assay: as §2, with “reduction” for “decrease”, “bacterial load” for “IL-6 level”, “days (reference value: 3.69 log10CFU/ml)” for “days”; format: functional; details: time 2 day
# Staphylococcus aureus [10] = assay: as §1, with “liver” for “blood”; format: functional; details: time 2 day
# Staphylococcus aureus [11] = assay: as §1, with “kidney” for “blood”; format: functional; details: time 2 day
# Bacillus subtilis = assay: Antibacterial activity against penicillin-susceptible Bacillus subtilis ATCC 9372; format: functional
# Staphylococcus aureus [12] = assay: as §2, with “reduction” for “decrease”, “bacterial load” for “IL-6 level”, “kidney” for “blood”, “days (reference value: 6.75 log10CFU/g)” for “days”; format: functional; details: time 2 day
# Staphylococcus aureus [13] = assay: as §2, with “reduction” for “decrease”, “bacterial load” for “IL-6 level”, “liver” for “blood”, “days (reference value: 7.16 log10CFU/g)” for “days”; format: functional; details: time 2 day
# [14] = Hemolytic activity in sheep RBC; format: toxicity, cell-based, Ovis aries, Erythrocyte; details: sheep red blood cells (erythrocytes)
# Staphylococcus aureus [15] = assay: Antibacterial activity against methicillin-resistant Staphylococcus aureus ATCC 43300; format: functional
# Staphylococcus aureus [16] = assay: Antibacterial activity against erythromycin-susceptible Staphylococcus aureus ATCC 25923; format: functional
# [17] = tested on: Staphylococcus epidermidis; assay: Antibacterial activity erythromycin-susceptible Staphylococcus epidermidis ATCC 12228; format: functional
# [18] = Selectivity index, ratio of HC50 for hemolytic activity in sheep RBC to MIC for antibacterial activity against methicillin-resistant Staphylococcus aureus ATCC 43300; format: toxicity; details: sheep red blood cells (erythrocytes), read-out: Selectivity Index
# Staphylococcus aureus [19] = assay: Antibacterial activity against penicillin-resistant Staphylococcus aureus ATCC 31007; format: functional
smiles,measurement,setting,value
CN[C@H](CC(C)C)C(=O)N[C@H]1C(=O)N[C@@H](CC(N)=O)C(=O)N[C@H]2C(=O)N[C@H]3C(=O)N[C@H](C(=O)N[C@H](C(=O)O)c4cc(O)cc(O)c4-c4cc3ccc4O)[C@H](O)c3ccc(c(Cl)c3)Oc3cc2cc(c3O[C@@H]2O[C@H](CO)[C@@H](O)[C@H](O)[C@H]2O[C@H]2C[C@](C)(N)[C@H](O)[C@H](C)O2)Oc2ccc(cc2Cl)[C@H]1O [VANCOMYCIN],MIC,Pseudomonas aeruginosa,> 128 µg/mL
same,Activity,Staphylococcus aureus [1],96.5%
same,Activity,Staphylococcus aureus [2],Active
same,Activity,Staphylococcus aureus [3],Active
same,MIC,Enterococcus faecalis,2 µg/mL
same,Activity,Staphylococcus aureus [4],Active
same,MIC,Acinetobacter baumannii,16 µg/mL
same,MIC,Klebsiella pneumoniae,128 µg/mL
same,Activity,Staphylococcus aureus [5],Active
same,Activity,Staphylococcus aureus [6],Active
same,Activity,Staphylococcus aureus [7],2.33 log10CFU/g
same,Activity,Staphylococcus aureus [8],99.6%
same,MIC,Escherichia coli,128 µg/mL
same,Activity,Staphylococcus aureus [9],1.5 log10CFU/ml
same,Activity,Staphylococcus aureus [10],99.8%
same,Activity,Staphylococcus aureus [11],99.8%
same,MIC,Bacillus subtilis,0.5 µg/mL
same,Activity,Staphylococcus aureus [12],2.73 log10CFU/g
same,Activity,Staphylococcus aureus [13],2.7 log10CFU/g
CC(=O)c1ccc2c(c1OCC(=O)N(CCCN)CCCN)C=CC(C)(CCC=C(C)C)O2.Cl.Cl (stereo unspecified),MIC,Pseudomonas aeruginosa,> 128 µg/mL
same,HC50,[14],1670 µg/mL
same,MIC,Enterococcus faecalis,> 128 µg/mL
same,MIC,Acinetobacter baumannii,> 128 µg/mL
same,MIC,Staphylococcus aureus [15],128 µg/mL
same,MIC,Klebsiella pneumoniae,> 128 µg/mL
same,MIC,Escherichia coli,> 128 µg/mL
same,MIC,Staphylococcus aureus [16],> 128 µg/mL
same,MIC,[17],128 µg/mL
same,selectivity ratio,[18],13
same,MIC,Staphylococcus aureus [19],> 128 µg/mL
same,MIC,Bacillus subtilis,32 µg/mL
CCCCN(CCCC)CCCNCCCOc1ccc(/C=C/C(=O)c2ccc3c(c2OC)C=CC(C)(CCC=C(C)C)O3)cc1 (stereo unspecified),MIC,Pseudomonas aeruginosa,128 µg/mL
same,HC50,[14],66.9 µg/mL
same,MIC,Enterococcus faecalis,2 µg/mL
same,MIC,Acinetobacter baumannii,8 µg/mL
same,MIC,Staphylococcus aureus [15],4 µg/mL
same,MIC,Klebsiella pneumoniae,16 µg/mL
same,MIC,Escherichia coli,4 µg/mL
same,MIC,Staphylococcus aureus [16],8 µg/mL
same,MIC,[17],1 µg/mL
same,selectivity ratio,[18],16.7
same,MIC,Staphylococcus aureus [19],4 µg/mL
same,MIC,Bacillus subtilis,4 µg/mL
CC(=O)c1ccc2c(c1OCC(=O)NCCCN1CCCC1)C=CC(C)(CCC=C(C)C)O2 (stereo unspecified),MIC,Pseudomonas aeruginosa,> 128 µg/mL
same,HC50,[14],167 µg/mL
same,MIC,Enterococcus faecalis,64 µg/mL
same,MIC,Acinetobacter baumannii,128 µg/mL
same,MIC,Staphylococcus aureus [15],32 µg/mL
same,MIC,Klebsiella pneumoniae,64 µg/mL
same,MIC,Escherichia coli,> 128 µg/mL
same,MIC,Staphylococcus aureus [16],32 µg/mL
same,MIC,[17],64 µg/mL
same,selectivity ratio,[18],5.2
same,MIC,Staphylococcus aureus [19],32 µg/mL
same,MIC,Bacillus subtilis,64 µg/mL
CC(=O)c1c(OCCCNCCCN2CCOCC2)c2c(c3c1OC(C)(CCC=C(C)C)C=C3)OC(C)(CCC=C(C)C)C=C2 (stereo unspecified),MIC,Pseudomonas aeruginosa,> 128 µg/mL
same,HC50,[14],18.1 µg/mL
same,MIC,Enterococcus faecalis,8 µg/mL
same,MIC,Acinetobacter baumannii,128 µg/mL
same,MIC,Staphylococcus aureus [15],4 µg/mL
same,MIC,Klebsiella pneumoniae,128 µg/mL
same,MIC,Escherichia coli,> 128 µg/mL
same,MIC,Staphylococcus aureus [16],4 µg/mL
same,MIC,[17],4 µg/mL
same,selectivity ratio,[18],4.5
same,MIC,Staphylococcus aureus [19],4 µg/mL
same,MIC,Bacillus subtilis,4 µg/mL
CCN(CC)C(=O)COc1c(C(C)=O)ccc2c1C=CC(C)(CCC=C(C)C)O2 (stereo unspecified),MIC,Pseudomonas aeruginosa,> 128 µg/mL
same,HC50,[14],131 µg/mL
same,MIC,Enterococcus faecalis,> 128 µg/mL
same,MIC,Acinetobacter baumannii,128 µg/mL
same,MIC,Staphylococcus aureus [15],128 µg/mL
same,MIC,Klebsiella pneumoniae,> 128 µg/mL
same,MIC,Escherichia coli,> 128 µg/mL
same,MIC,Staphylococcus aureus [16],> 128 µg/mL
same,MIC,[17],> 128 µg/mL
same,selectivity ratio,[18],1
same,MIC,Staphylococcus aureus [19],> 128 µg/mL
same,MIC,Bacillus subtilis,> 128 µg/mL
CCNCCCOc1ccc(/C=C/C(=O)c2ccc3c(c2OC)C=CC(C)(CCC=C(C)C)O3)cc1 (stereo unspecified),MIC,Pseudomonas aeruginosa,> 128 µg/mL
same,HC50,[14],59.9 µg/mL
same,MIC,Enterococcus faecalis,4 µg/mL
same,MIC,Acinetobacter baumannii,> 128 µg/mL
same,MIC,Staphylococcus aureus [15],8 µg/mL
same,MIC,Klebsiella pneumoniae,32 µg/mL
same,MIC,Escherichia coli,> 128 µg/mL
same,MIC,Staphylococcus aureus [16],8 µg/mL
same,MIC,[17],1 µg/mL
same,selectivity ratio,[18],7.5
same,MIC,Staphylococcus aureus [19],8 µg/mL
same,MIC,Bacillus subtilis,8 µg/mL
